Source: patent US20220119794A1, “CHEMICALLY PROGRAMMED NEUTROPHILS AND USES THEREOF” (VIRGINIA POLYTECHNIC INSTITUTE AND STATE UNIVERSITY, priority 2018, published 2022)

Columns and labels:
BM neutrophils [1] = assay: Surface phenotype of neutrophils before transfer, polarization for 24 h; format: cell-based, mice; conditions: polarized for 24 hours, vs PBS
Protocol: Bone marrow neutrophils were purified and treated with PBS, super-low-dose LPS (100 pg/ml) or 4-PBA (1 mM) for 24 h (FIGS. 16A-16B) and 48 h (FIGS. 16C-16D). The cells were stained with Annexin-V and PI, and the viability (percentage of Annexin-V-/PI-population) was determined by flow cytometry. (FIG. 16E) Surface phenotype of neutrophils was analyzed by flow cytometry after polarization for 24 h. Data are representative of three independent experiments, and error bars represent means±S.E.M. *P<0.05, **P<0.01 and ***P<0.001 as compared with PBS group; one-way ANOVA. (n=5 for each group).
Adoptive transfer of in vitro neutrophils. Bone marrow (BM) cells were isolated from ApoE−/− mice and BM neutrophils (Ly6G+ population) were purified by FACS sorting with >99.5% purity. The cells were cultured in complete RPMI with G-CSF (100 ng/ml) in the presence of subclinical dose LPS (100 pg/ml) or 4-PBA (1 mM) for 24 h. Cells were washed three times with PBS and suspended in PBS for injection. HFD-fed ApoE−/− mice were transfused with 2×10^6 neutrophils in 200 μl PBS once weekly through intravenous injection for 4 weeks. One week after the last cell transfer, mice were sacrificed and tissues were harvested for subsequent analyses.

mice = mice repeatedly injected with 1.5 mg/kg LPS; cited from earlier work
BM neutrophils [2] = assay: ELISA of MMP9, LTB4, MPO in neutrophil culture supernatant; format: cell-based, C57 BL/6 mice; conditions: LPS 100 pg/ml with G-CSF, vs G-CSF alone
Protocol: (§1) ELISA and determination of plasma lipids. For in vivo analyses, plasma was collected from the mice at time of sacrificing. For in vitro analyses, purified BM neutrophils were cultured in complete RPMI medium with G-CSF (100 ng/ml) in the presence of PBS, subclinical dose LPS (100 pg/ml), oxLDL (10 μg/ml) or 4-PBA (1 mM), and supernatant was collected after 2 d. ELISA kit of MPO was purchased from ThermoFisher, and ELISA kits of MMP9, LTB4 and TGF-β1 were purchased from R&D Systems. Cholesterol quantitation kit was purchased from Sigma-Aldrich, and triglyceride quantification kit was purchased from BioVision.

[3] = tested on: Bone marrow (BM) neutrophils; assay: In vitro neutrophil priming, surface phenotype by FACS; format: cell-based, C57 BL/6 mice; conditions: LPS 100 pg/ml with G-CSF, vs G-CSF alone
Protocol: (§2) In vitro neutrophil priming and FACS analysis. Bone marrow (BM) neutrophils were isolated from C57 BL/6 mice and cultured in complete RPMI medium containing 10% fetal bovine serum, 2 mM L-glutamine, 1% penicillin/streptomycin in the presence of G-CSF (100 ng/ml). PBS, subclinical dose LPS (100 pg/ml), oxLDL (10 μg/ml) or 4-PBA (1 mM) was added to cell cultures. After 2 days, the cells were harvested and stained with anti-Ly6G (BioLegend, #127606, 127610 or 127618, 1:200 dilution), anti-CD11b (BioLegend, #101206, 1:200 dilution), anti-CD62L (BioLegend, #104407, 1:200 dilution), anti-Dectin1 (BioLegend, #144305, 1:200 dilution), anti-LLRC32 (BioLegend, #142904, 1:200 dilution) and anti-FPN (Novus, #NBP1-21502, 1:200 dilution) antibodies. In some experiments, the cells were fixed and permeabilized using transcription factor phospho buffer set (BD Biosciences), and then stained with primary anti-p-STAT1 (Cell Signaling, #8009S, 1:50 dilution), anti-ATF4 (Proteintech, #10835-1-AP, 1:50 dilution), and anti-KLF2 (Novus, #NBP2-61812, 1:100 dilution) antibodies followed by staining with Alexa Fluor 488 conjugated goat anti-rabbit IgG (Abcam, #ab150077, 1:2000 dilution). Surface phenotype and transcription factor phosphorylation of Ly6G+ neutrophils were analyzed by FACSCanto II (BD Biosciences). For intracellular ROS detection, 5 μM CellROX Green Reagent (ThermoFisher) was added to neutrophil cultures 30 min before harvesting, and cells were analyzed by FACSCanto II (BD Biosciences). The data were processed by Flow Jo (Tree Star).

[4] = tested on: p-STAT1, ATF4, KLF2 in BM neutrophils; assay: p-STAT1, ATF4 and KLF2 levels in neutrophils by flow cytometry; format: cell-based, C57 BL/6 mice; conditions: LPS 100 pg/ml, vs PBS
Protocol: as §2

[5] = tested on: oxCaMKII and 5-LOX in BM neutrophils; assay: Immunoblotting of oxCaMKII and 5-LOX in neutrophils; format: cell-based, C57 BL/6 mice; conditions: LPS 100 pg/ml, vs PBS
Protocol: Immunoblotting. Purified BM neutrophils were cultured in complete RPMI medium with G-CSF (100 ng/ml) in the presence of PBS, subclinical dose LPS (100 pg/ml), oxLDL (10 μg/ml) or 4-PBA (1 mM), and total cell lysate was extracted on day 2. Protein samples were separated with SDS-PAGE and transferred to PVDF membranes, which were probed with anti-oxCaMKII (Millipore, #07-1387, 1:500 dilution), anti-5 LOX (Cell Signaling, #3289S, 1:500 dilution), and anti-β-actin (Santa Cruz, #sc-47778, 1:1000 dilution) primary antibodies followed by horseradish peroxidase-conjugated anti-rabbit IgG (Cell Signaling, #7074S, 1:1000 dilution) or anti-mouse IgG (Cell Signaling, #7076S, 1:1000 dilution) secondary antibodies. Images were developed by a chemiluminescence ECL detection kit (ThermoFisher).

BM neutrophils [6] = assay: Lysosome-peroxisome fusion by confocal microscopy; format: cell-based, C57 BL/6 mice; conditions: LPS 100 pg/ml, 2 d, vs PBS
Protocol: Confocal Microscopy. Purified BM neutrophils were cultured in complete RPMI medium with G-CSF (100 ng/ml) in the presence of PBS, subclinical dose LPS (100 pg/ml), or 4-PBA (1 mM) for 2 d. To determine lysosome-peroxisome fusion, the cells were fixed with 4% PFA, deposited on slides through cytospin, and permeabilized with 0.2% Trinton X-100. The cells were blocked and stained with primary rabbit anti-mouse PMP70 antibody (1:1000) supplied in SelectFX® Alexa Fluor® 488 Peroxisome Labeling Kit (ThermoFisher, #S34201), followed by staining with Alexa Fluor 488-goat anti-rabbit secondary antibody (1:1000) supplied in the kit. After extensive washing with PBS, the cells were then stained with Cy3-anti-LAMP1 antibody (Abcam, #Ab67283, 1:1000) and observed under a confocal microscope.

ApoE−/− mice = assay: Subclinical low dose LPS injection in ApoE−/− mice: atherosclerotic lesions, circulating mediators; format: in vivo; conditions: for lesional oxCAMKII levels: low dose LPS vs PBS
Protocol: (§3) Experimental animals and LPS injection. Male ApoE−/− mice (6 to 8-week old) on the C57 BL/6 background were purchased from the Jackson Laboratory and fed with regular diet or High Fat Diet. Either PBS or subclinical dose LPS (5 ng per kg body weight) was intraperitoneally injected every 3 days for 1 month. Then, the mice were sacrificed and tissues were harvested for further analyses. All animal procedures were in accordance with the US National Institutes of Health Guide for the Care and Use of Laboratory Animals and approved by the Intuitional Animal Care and Use Committee of Virginia Tech.
Analyses of atherosclerotic lesions. Histological analyses were performed on fresh-frozen and optimal cutting temperature (OCT) compound-embedded proximal aortic sections ([…]). Slides were fixed in 4% neutral buffered formalin for 5 min, followed by H&E or Oil Red O staining. Collagen staining was performed using the Picrosirius Red Stain Kit (Poly-Sciences) according to the manufacturer's instructions. The samples were observed under a light microscope. The percentages of total lesion area, lipid deposition, and collagen composition were calculated. For immunofluorescence staining, proximal aortic sections were fixed with 4% neutral buffered formalin for 5 min, permeabilized with 0.1% saponins, and blocked with 10% normal goat serum (Jackson ImmunoResearch) for 1 hour. To detect lesional neutrophils, the samples were stained with Alexa Fluor 647-conjugated anti-Ly6G antibody (1:50 dilution; BioLegend, no. 127610). To detect lesional macrophages, the samples were costained with eFluor 660-conjugated anti-CD68 (1:100 dilution; Thermo Fisher Scientific, no. 50-0681-82) and rabbit anti-SR-A (1:100 dilution; Thermo Fisher Scientific, no. PA5-22956) antibodies, followed by staining with DyLight 488-conjugated goat anti-rabbit immunoglobulin G (IgG) (1:100 dilution; Thermo Fisher Scientific, no. 35552) in the dark at room tem-perature for 1 hour. To detect oxCAMKII levels, the samples were stained with rabbit anti-oxCaMKII antibody (1:100 dilution; Millipore, no. 07-1387) at 4° C. overnight and then with DyLight 488-conjugated goat anti-rabbit IgG (1:100 dilution; Thermo Fisher Scientific, no. 35552) in the dark at room temperature for 1 hour. 4′,6-Diamidino-2-phenylindole was used to stain nucleus. The samples were observed under a confocal microscope.
as §1

BM neutrophils [7] = assay: Real-time RT-PCR of miR-24 and miR-126 in neutrophil cultures; format: cell-based, C57 BL/6 mice; conditions: LPS 100 pg/ml, 2 d, vs PBS
Protocol: Real-Time RT-PCR for detecting of miRNAs. For in vivo analyses, plasma was collected from the mice at time of sacrificing. Circulating miRNAs were isolated with miRNeasy Serum/Plasma kit (Qiagen). For in vitro analyses, purified BM neutrophils were cultured in complete RPMI medium with G-CSF (100 ng/ml) in the presence of PBS, subclinical dose LPS (100 pg/ml), or 4-PBA (1 mM), and miRNAs were isolated with miRNeasy mini kit (Qiagen) after 2 d. TaqMan miRNA Assay kits for detection of U6, miR-16, miR-24, and miR-126 were purchased from ThermoFisher. Real-time RT-PCR was performed following the manual. U6 expression was used as the internal control for miRNA expressions in neutrophil cultures, and miR-16 expression was used as the internal control for plasma miRNA expressions.

Ly6G+ neutrophils = assay: Analyses of neutrophil phenotype in vivo by flow cytometry; design: species or system mice
Protocol: as §3
Analyses of neutrophil phenotype in vivo. Peripheral blood cells, bone marrow (BM) cells and splenocytes were harvested from the mice treated as described above. Cells were stained with anti-Ly6G (BioLegend, #127618, 1:200 dilution), anti-CD11b (BioLegend, #101206, 1:200 dilution), anti-CD62L (BioLegend, #104407, 1:200 dilution), anti-Dectin1 (BioLegend, #144305, 1:200 dilution), anti-LLRC32 (BioLegend, #142904, 1:200 dilution) and anti-FPN (Novus, #NBP1-21502, 1:200 dilution) antibodies. The surface phenotype of Ly6G+ neutrophils was analyzed by FACSCanto II (BD Biosciences). The data were processed by Flow Jo (Tree Star).

BM neutrophils [8] = assay: Intracellular ROS detection with CellROX; format: cell-based, C57 BL/6 mice; conditions: LPS 100 pg/ml, vs PBS
Protocol: as §2, with “In some experiments, the cells were fixed and permeabilized using transcription factor phospho buffer set (BD Biosciences), and then stained with primary anti-p-STAT1 (Cell Signaling, #8009S, 1:50 dilution), anti-ATF4 (Proteintech, #10835-1-AP, 1:50 dilution), and anti-KLF2 (Novus, #NBP2-61812, 1:100 dilution) antibodies followed by staining with Alexa Fluor 488 conjugated goat anti-rabbit IgG (Abcam, #ab150077, 1:2000 dilution).” left out, “The data were processed by Flow Jo (Tree Star).” left out

[9] = HFD-fed ApoE−/− mice, LPS 5 ng/kg body weight for 4 weeks, vs PBS
[10] = LPS-injected vs PBS-injected mice
[11] = LPS-injected vs PBS-injected mice, blood, spleen, bone marrow

What does the source list for lipopolysaccharide [LPS]?
CD11b expression (BM neutrophils [1]): elevated expressions; CD62L expression (BM neutrophils [1]): reduced expressions; Dectin-1 expression (BM neutrophils [1]): elevated expressions; FPN expression (BM neutrophils [1]): reduced expressions; LRRC32 expression (BM neutrophils [1]): reduced expressions; necrotic cores (mice): enlarged; numbers of circulating neutrophils (mice): elevated numbers; plaque collagen content (mice): reduced; LTB4 in supernatant (BM neutrophils [2]): Significantly higher levels; MMP9 in supernatant (BM neutrophils [2]): Significantly higher levels; MPO in supernatant (BM neutrophils [2]): Significantly higher levels; surface CD11b [3]: Significantly elevated levels; surface CD62L [3]: significantly reduced levels; surface Dectin-1 [3]: Significantly elevated levels; surface FPN [3]: significantly reduced levels; surface LRRC32 [3]: significantly reduced levels; cellular level of ATF4 [4]: significantly reduced; cellular level of KLF2 [4]: significantly reduced; p-STAT1 level [4]: significantly elevated levels; 5-LOX level [5]: increased levels; oxCAMKII level [5]: increased levels; fusion between peroxisome and lysosome (BM neutrophils [6]): disruption of proper fusion; atherosclerotic plaque size (ApoE−/− mice; [9]): significantly larger; circulating MPO (ApoE−/− mice; [9]): remarkable elevation; circulating levels of TGFβ (ApoE−/− mice; [9]): significantly reduced; collagen content within the plaque (ApoE−/− mice; [9]): significantly reduced; plasma LTB4 level (ApoE−/− mice; [9]): significant elevation; plasma MMP9 level (ApoE−/− mice; [9]): significant elevation; lesional oxCAMKII levels (ApoE−/− mice; HFD-fed ApoE−/− mice): significantly elevated; lesional oxCAMKII levels (ApoE−/− mice; RD-fed ApoE−/− mice): significantly elevated; miR-24 expression (BM neutrophils [7]): induced; miR-126 expression (BM neutrophils [7]): potently suppressed; neutrophil surface level of FPN (Ly6G+ neutrophils; [10]): significantly reduced; neutrophil surface level of LRRC32 (Ly6G+ neutrophils; [10]): significantly reduced; neutrophil surface CD11b (Ly6G+ neutrophils; [11]): significantly elevated; neutrophil surface Dectin1 (Ly6G+ neutrophils; [11]): significantly elevated; neutrophil surface-attached CD62L (Ly6G+ neutrophils; [11]): significant reduction; percentages of neutrophils in blood, spleens and atherosclerotic plaques (Ly6G+ neutrophils; mice chronically injected with LPS vs PBS): higher percentages; intracellular ROS level (BM neutrophils [8]): significantly higher levels
